Data reported in patent publication US20170176436A1, “METHODS (AMACR)” (UNIVERSITY OF BATH, priority 2014, published 2017).

How the values were obtained:
Human AMACR [1] = target: T1, Human AMACR (Homo sapiens, UniProt Q9UHK6); experiment: AMACR-catalysed elimination reaction of 3-fluoro-2-methylacyl-CoA esters, monitored by 1H and 19F NMR; format: biochemical
T1 construct: inferred only from purification by metal-chelate chromatography; made in house; host or cells: E. coli Rosetta2 (DE3)
T1 sequence (Q9UHK6 1-382): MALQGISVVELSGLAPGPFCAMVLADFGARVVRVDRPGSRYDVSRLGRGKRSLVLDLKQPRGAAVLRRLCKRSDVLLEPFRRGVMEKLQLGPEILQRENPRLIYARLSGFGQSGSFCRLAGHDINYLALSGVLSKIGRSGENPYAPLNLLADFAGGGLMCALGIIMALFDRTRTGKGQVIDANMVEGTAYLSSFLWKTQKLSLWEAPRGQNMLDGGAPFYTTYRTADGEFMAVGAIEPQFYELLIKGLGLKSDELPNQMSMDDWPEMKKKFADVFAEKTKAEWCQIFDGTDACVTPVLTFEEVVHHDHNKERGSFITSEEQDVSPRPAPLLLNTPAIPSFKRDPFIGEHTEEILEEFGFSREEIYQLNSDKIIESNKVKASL
Procedure: (§1) Human AMACR was expressed in E. coli Rosetta2 (DE3) at 22° C. overnight shaking at 220 r.p.m.^1 Cells (˜2 g) were lysed using the ‘one shot’ in ˜30 mL buffer supplemented with 250u benzonase (Novagen) and stirred with 1.5% (w/v) N-lauroyl-sarcosine at 4° C. for 1 hour. Following centrifugation, enzyme was purified by metal-chelate chromatography, dialysed into 20 mM NaH2PO4—NaOH, pH 7.4 and stored at −80° C.^1,2
(§2) Assays were conducted in buffer containing ^2H2O and 100 μM acyl-CoA substrate as previously described, with negative controls contain heat-inactivated enzyme. ±-Fenoprofenoyl-CoA or 2-methyldecanoyl-CoA was used as known substrates.^1,2 Assays were quenched by heating to 50° C. for 10 minutes before ^1H NMR analysis (500.13 MHz). Conversion of substrates was quantified by conversion of the 2-Me doublet at ca. 1.0 p.p.m. into a singlet.^1,2 Kinetic data was analysed as previously described^1,2 and parameters were obtained using SigmaPlot 12 with the Direct Linear Plot^3,4 and non-linear fitting of Michaelis-Menten parameters.
(§3) The 3S and 3R stereoisomers of the 3-fluoro-2-methylacyl-CoA esters were then incubated with AMACR and the reaction was monitored by ^1H and ^19F NMR. Interconversion of 3S and 3R by chiral inversion was expected to be observed. […] The synthetic product compound was produced from the E-acid, which had the alkene proton at 6.92 p.p.m., whilst the Z-isomer has an alkene proton at 6.09 p.p.m. in the ^1H NMR spectrum. The presence of fluoride was observed as a characteristic signal at −120 p.p.m. in the ^19F spectrum. Increasing amounts of the unsaturated product compound and inorganic fluoride were observed upon incubation of either 3S or 3R with AMACR for longer times. This reaction was not observed in negative controls containing heat-inactivated enzyme. […] This observed irreversibility of the elimination reaction probably results from the high levels of hydration of the fluoride anion.

[2] = target: T2, human recombinant AMACR 1A (Homo sapiens, UniProt Q9UHK6); experiment: Measurement of inhibitor potency using the elimination assay (1H NMR); format: biochemical
T2 construct: made in house
T2 sequence (Q9UHK6 1-382): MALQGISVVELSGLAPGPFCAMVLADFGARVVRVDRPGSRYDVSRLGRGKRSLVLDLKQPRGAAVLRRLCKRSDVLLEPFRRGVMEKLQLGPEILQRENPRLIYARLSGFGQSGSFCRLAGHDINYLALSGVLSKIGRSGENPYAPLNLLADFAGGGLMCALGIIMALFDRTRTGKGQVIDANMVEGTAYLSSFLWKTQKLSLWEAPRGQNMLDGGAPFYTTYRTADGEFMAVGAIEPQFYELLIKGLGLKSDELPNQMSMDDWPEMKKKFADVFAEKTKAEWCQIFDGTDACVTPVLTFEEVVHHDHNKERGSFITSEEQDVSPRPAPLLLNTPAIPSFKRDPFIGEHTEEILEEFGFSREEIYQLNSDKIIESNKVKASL
Procedure: Assays were performed as previously described in a total volume of […] in the presence of ^2H2O. using human recombinant AMACR 1A^2. In the following table inhibitor at 100 μM was incubated with enzyme for 10 minutes at room temperature. The reaction was initiated by addition of a stock solution of substrate (2S,3R-3-fluoro-2-methyldecanoyl-CoA) to a final concentration of 100 μM, followed by incubation at 30° C. for 1 hour. The reaction was terminated by heating at ca. 55° C. for 10 minutes. The cooled reaction mixture analysed by ^1H NMR by the appearance of the unsaturated product peak at ca. 1.75 ppm and comparison to the residual substrate peak at 1.1 ppm.^5 Assays were compared to a positive control (no inhibitor) and conversion levels are corrected for levels in negative controls (boiled enzyme). The data in the table is the average of two […] repeats.
Similar assays were also conducted where inhibitor and substrate were added to the enzyme simultaneously.

Human AMACR [3] = target: T1, Human AMACR; experiment: AMACR chiral inversion reaction of a known substrate, 1H NMR assay; format: biochemical
Procedure: as §1, §2

[4] = target: T2, human recombinant AMACR 1A; experiment: Colorimetric assay for AMACR, 96-well plate, absorbance at 354 nm; format: biochemical
Procedure: Based on this elimination reaction, a colorimetric assay was developed. […] 2,4-dintrophenol was chosen as the leaving group as the pKa of the acid is similar to that of HF.
The elimination reaction is shown in Reaction Scheme 2 below:
The above assay was transferred into a 96-well plate format with the extent of reaction monitored by absorbance at 354 nm. The reaction was carried out in Na2HPO4—NaOH, pH 7.4 in a total volume of 100 μL containing 8.05 μg (0.17 nmoles) of human recombinant AMACR 1A.
The kinetics assay was carried out in a 96 well plate. Substrate stock solutions (at 2× the final concentration) were prepared by serial dilution in a total volume of 150 μL in phosphate buffer (as already described). This solution (50 μL) was transferred into […], such that three identical wells were prepared. The reaction was initiated by adding a 2× stock solution of enzyme (50 μL per well) to the substrate, mixing and measuring the change in absorbance at 354 nm over a 15 minute time course, with data collected every 60 seconds. The reaction was conducted at ambient room temperature, ca. 25° C. The final concentrations of substrate (in the assay, after adding the enzyme) were: 256.3, 180.9, 113.9, 75.9, 50.6, 33.8, 22.5, 15.0 μM.
Rates were determined by plotting the absorbance vs. time in Microsoft Excel. The initial rate was used before the rate starts to reduce due to substrate depletion and other reasons. The rate in absorbance units/min was derived by fitting a straight line to the points and determining the slope from the y=mx+c equation.
The data was converted into nmol/min/mg using the extinction coefficient,^8 the pathlength (calculated by the plate-reader based on the volume of the reaction; 0.33 cm), and the amount of enzyme determined by UV-visible spectroscopy.^1 Kinetic constants were derived using SigmaPlot 12 with the enzyme kinetics macro function. Fitting assumed a single substrate per active site, two active sites per dimer (one active sites per protein molecule), with three repeats of each rate. […] Kinetic data was also calculated using the Direct Linear Plot^3,4 A similar method (with a different enzyme) has also been described.^10

[5] = substrate: CCCCCCC[C@@H](F)[C@@H](C)C(=O)SCCNC(=O)CCNC(=O)[C@H](O)C(C)(C)COP(=O)(O)OP(=O)(O)OC[C@H]1O[C@@H](n2cnc3c(N)ncnc32)[C@H](O)[C@@H]1OP(=O)(O)O; experiment: AMACR-catalysed elimination reaction of 3-fluoro-2-methylacyl-CoA esters, monitored by 1H and 19F NMR; format: biochemical, human; conditions: other: elimination reaction; Direct Linear Plot; 1H NMR; pH 7.4
Procedure: as §1, §2, §3

[6] = substrate: CCCCCCCCC(C)C(=O)SCCNC(=O)CCNC(=O)[C@H](O)C(C)(C)COP(=O)(O)OP(=O)(O)OC[C@H]1O[C@@H](n2cnc3c(N)ncnc32)[C@H](O)[C@@H]1OP(=O)(O)O; experiment: AMACR chiral inversion reaction of a known substrate, 1H NMR assay; format: biochemical, human; conditions: other: chiral inversion reaction; pH 7.4
Procedure: as §1, §2

[7] = elimination reaction, Direct Linear Plot, 1H NMR
[8] = inhibitor 100 μM incubated with enzyme 10 minutes at room temperature before substrate, enzyme 0.06 mg/mL, substrate 2S,3R-3-fluoro-2-methyldecanoyl-CoA 100 μM, 30° C. 1 hour
[9] = inhibitor and substrate added to the enzyme simultaneously, enzyme 0.12 mg/mL
[10] = elimination of 2,4-dinitrophenoxide, pH 7.4, ca. 25° C., absorbance 354 nm

CCCCCCC[C@@H](F)[C@H](C)C(=O)SCCNC(=O)CCNC(=O)[C@H](O)C(C)(C)COP(=O)(O)OP(=O)(O)OC[C@H]1O[C@@H](n2cnc3c(N)ncnc32)[C@H](O)[C@@H]1OP(=O)(O)O [Compound 5, (2S,3R)-3-Fluoro-2-methyldecanoic-CoA]
Km (Human AMACR [1]; [7]): 21 µM
Vmax (Human AMACR [1]; [7]): 96.5 nmol·min^−1·mg polypeptide^−1
kcat (Human AMACR [1]; [7]): 0.0758 s⁻¹

CC(C)Cc1ccc(C(C)C(=O)SCCNC(=O)CCNC(=O)C(O)C(C)(C)COP(=O)(O)OP(=O)(O)OCC2OC(n3cnc4c(N)ncnc43)C(O)C2OP(=O)(O)O)cc1 (stereo not shown) [Ibuprofenoyl-CoA]
Average reduction in conversion [2, 8]: 14.5%
Average reduction in conversion [2, 9]: 11%

CCCCCCCCC(C)C(=O)SCCNC(=O)CCNC(=O)[C@H](O)C(C)(C)COP(=O)(O)OP(=O)(O)OC[C@H]1O[C@@H](n2cnc3c(N)ncnc32)[C@H](O)[C@@H]1OP(=O)(O)O (stereo partly shown) [S-2-methyldecanoyl-CoA]
Vmax (Human AMACR [3]): 39.3 nmol·min^−1·mg^−1 polypeptide
Average reduction in conversion [2, 9]: 7.2%

CC(C(=O)SCCNC(=O)CCNC(=O)C(O)C(C)(C)COP(=O)(O)OP(=O)(O)OCC1OC(n2cnc3c(N)ncnc32)C(O)C1OP(=O)(O)O)c1cccc(C(=O)c2ccccc2)c1 (stereo not shown) [Ketoprofenoyl-CoA]
Average reduction in conversion [2, 8]: 4.5%

COc1ccc2cc(C(C)C(=O)SCCNC(=O)CCNC(=O)C(O)C(C)(C)COP(=O)(O)OP(=O)(O)OCC3OC(n4cnc5c(N)ncnc54)C(O)C3OP(=O)(O)O)ccc2c1 (stereo not shown) [Naproxenoyl-CoA]
Average reduction in conversion [2, 8]: 4.7%

CC(COc1ccc([N+](=O)[O-])cc1[N+](=O)[O-])C(=O)SCCNC(=O)CCNC(=O)[C@H](O)C(C)(C)COP(=O)(O)OP(=O)(O)OC[C@H]1O[C@@H](n2cnc3c(N)ncnc32)[C@H](O)[C@@H]1OP(=O)(O)O (mixture of isomers) [colorimetric substrate, racemic 3-(2,4-dinitrophenoxy)-2-methyl-propanoyl-CoA]
conversion efficiency relative to anti-3-fluoro-2-methyldecanoyl-CoA, as judged by kcat/Km [4]: ~35%
colour produced on incubation with active AMACR ([4]; absent in negative controls using heat-inactivated enzyme): intense yellow colour
Km [4, 10]: 18 µM
Vmax [4, 10]: 27.61 nmol/min/mg
kcat [4, 10]: 0.023 s⁻¹

CC(C(=O)SCCNC(=O)CCNC(=O)C(O)C(C)(C)COP(=O)(O)OP(=O)(O)OCC1OC(n2cnc3c(N)ncnc32)C(O)C1OP(=O)(O)O)c1cccc(Oc2ccccc2)c1 (stereo not shown) [Fenoprofenoyl-CoA]
Average reduction in conversion [2, 8]: 14.1%

CCCCCCC[C@@H](F)[C@@H](C)C(=O)SCCNC(=O)CCNC(=O)[C@H](O)C(C)(C)COP(=O)(O)OP(=O)(O)OC[C@H]1O[C@@H](n2cnc3c(N)ncnc32)[C@H](O)[C@@H]1OP(=O)(O)O [Compound 11, (2R,3R)-3-Fluoro-2-methyldecanoyl-CoA]
Vmax (Human AMACR [1]; [7]): ~50.6 nmol·min^−1·mg polypeptide^−1
background conversion in negative controls (non-enzymatic elimination) (Human AMACR [1]; negative controls with heat-inactivated enzyme): significant background conversion

CCCCCCCC[C@@H](C)C(=O)SCCNC(=O)CCNC(=O)[C@H](O)C(C)(C)COP(=O)(O)OP(=O)(O)OC[C@H]1O[C@@H](n2cnc3c(N)ncnc32)[C@H](O)[C@@H]1OP(=O)(O)O [R-2-methyldecanoyl-CoA]
Average reduction in conversion [2, 9]: 13.6%

CC(C(=O)SCCNC(=O)CCNC(=O)C(O)C(C)(C)COP(=O)(O)OP(=O)(O)OCC1OC(n2cnc3c(N)ncnc32)C(O)C1OP(=O)(O)O)c1ccc(-c2ccccc2)c(F)c1 (stereo not shown) [Flurbiprofenoyl-CoA]
Average reduction in conversion [2, 8]: 3.5%

B1: Human AMACR (Homo sapiens) (protein)
chain: MALQGISVVELSGLAPGPFCAMVLADFGARVVRVDRPGSRYDVSRLGRGKRSLVLDLKQPRGAAVLRRLCKRSDVLLEPFRRGVMEKLQLGPEILQRENPRLIYARLSGFGQSGSFCRLAGHDINYLALSGVLSKIGRSGENPYAPLNLLADFAGGGLMCALGIIMALFDRTRTGKGQVIDANMVEGTAYLSSFLWKTQKLSLWEAPRGQNMLDGGAPFYTTYRTADGEFMAVGAIEPQFYELLIKGLGLKSDELPNQMSMDDWPEMKKKFADVFAEKTKAEWCQIFDGTDACVTPVLTFEEVVHHDHNKERGSFITSEEQDVSPRPAPLLLNTPAIPSFKRDPFIGEHTEEILEEFGFSREEIYQLNSDKIIESNKVKASL
notes: inferred only from purification by metal-chelate chromatography; made in house; host or cells: E. coli Rosetta2 (DE3)
Km [5]: 40 µM
kcat [5]: 0.0397 s⁻¹
kcat/Km [5]: 993 M⁻¹ s⁻¹
Km [6]: 277 µM
kcat [6]: 0.0310 s⁻¹
kcat/Km [6]: 112 M⁻¹ s⁻¹
